We go through one compound from patent US7019034B2, “Compositions and methods for reducing serum glucose and triglyceride levels in diabetic mammals” (Allergan, Inc., priority 2003, dated 2006).

Data set [1] relates to diabetic db/db mice. The experiment in a line: serum triglycerides in diabetic db/db mice, 7 days oral dosing. It counts as in vivo. The settings on record: for Triglycerides: 10 mg/kg once daily oral gavage, mean +/- SD. The procedure:
(§1) Effects of RXR agonists on serum glucose and triglyceride were studied in diabetic db/db mice. […] Briefly, animals were dosed once daily by oral gavage using corn oil vehicle for a period of 7 consecutive days. Serum samples were collected on day 1 (first day of dosing) and day 7 at hour 0 (immediately prior to dosing) and hour 3 (approximately 3 hours after dosing). Serum glucose and triglyceride levels of these samples were measured as described in the reference manuals: Glucose/HK. Boehringer Mannheim Corporation, 9115 Hague Road, Indianapolis, Ind., USA and Triglycerides/GPO. Roche Diagnostics Corporation, 9115 Hague Road, Indianapolis, Ind., USA, expressly incorporated herein. Only those animals with glucose levels of higher than 300 mg/dl at 0 hour on day 1 were considered as diabetic and included in data analysis.
(§2) A measured amount of dosing solution was withdrawn into a metal feeding tube attached to a marked syringe. Animals were restrained by grasping of their back skin while the feeding tube was gently inserted into their mouth and into esophagus. A fixed amount of the dosing solution was displaced into the esophagus/stomach of the animal by pushing the plunger of the syringe. Serum samples were collected from the retro-orbital sinus while the animals were anesthetized. These samples were analyzed by using commercially available kits from Boehringer Manheim for their glucose levels and Roche Diagnostics for their triglyceride levels in a Boehringer Manheim Hatachi Clinical Chemistry Analyzer.
(§3) For glucose assay, an enzymatic reaction using hexokinase and glucose-6-phosphodehydrogenase to catalyze glucose to gluconate-6phosphate and NADPH was employed. The amount of NADPH formed during these reactions was equivalent to the amount of glucose in the serum and was measured with a spectrophotometer. For triglycerides, a series of enzymatic reactions which included lipase, glycerol kinase and glycerol phosphate oxidase to formed dihydroacetone phosphate and peroxidase. The peroxidase produced catalyzed a reaction between peroxide and 4-aminophenazone and 4-chlorophenol in a Trinder reaction to generate a color change. This color change was measured by a spectrophotometer and reflected the amount of triglyceride in the sample.

Another data set addresses T1, RXRα (Homo sapiens, UniProt P19793).
T1 construct: expressed in transfected cells
T1 sequence (P19793 1-462): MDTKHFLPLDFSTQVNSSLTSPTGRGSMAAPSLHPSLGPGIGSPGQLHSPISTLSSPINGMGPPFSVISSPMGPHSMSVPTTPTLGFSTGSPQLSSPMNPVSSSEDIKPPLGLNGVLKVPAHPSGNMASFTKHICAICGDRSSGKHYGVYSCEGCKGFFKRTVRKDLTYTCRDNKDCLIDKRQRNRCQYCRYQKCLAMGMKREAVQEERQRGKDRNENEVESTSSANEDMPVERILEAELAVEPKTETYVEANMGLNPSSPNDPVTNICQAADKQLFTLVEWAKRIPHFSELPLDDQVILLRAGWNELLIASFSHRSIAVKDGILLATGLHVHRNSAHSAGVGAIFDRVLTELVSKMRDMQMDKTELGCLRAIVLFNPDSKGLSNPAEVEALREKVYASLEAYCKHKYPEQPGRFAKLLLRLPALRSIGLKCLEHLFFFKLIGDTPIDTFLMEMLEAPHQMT
The experiment in a line: holoreceptor transactivation assay, RXRα. It counts as cell-based. The settings on record: number in brackets. An excerpt: A holoreceptor transactivation assay and a ligand binding assay which measure the antagonist/agonist like activity of the compounds of the invention, or their ability to bind to the several retinoid receptor subtypes, respectively, are described in published PCT Application No. WO WO93/11755 (particularly on pages 30–33 and 37–41) published on Jun. 24, 1993, the specification of which is also incorporated herein by reference. […] The results obtained in this assay are expressed in EC50 numbers, as they are also in the chimeric receptor transactivation assay. The results of the ligand binding assay are expressed in Ki numbers. (See Cheng et al. Biochemical Pharmacology Vol. 22 pp 3099–3108, expressly incorporated herein by reference.)
(§4) Particularly, the transactivation data pertaining to activation of the RAR receptors were obtained in the chimeric assay, and the transactivation data pertaining to the activation of RXR receptors were obtained in the holoreceptor assay.
(§5) In Table 1 NA stands for not active at all as an agonist. ND stands for not determined. The first row of numbers pertaining to each compound is the measured EC50 number. […] The third row of numbers pertaining to each compound is the binding Ki number.

The next data set concerns young db/db mice. The experiment in a line: serum thyroxine (T4) in young db/db mice, 14 days oral dosing. It counts as in vivo. The procedure:
In another study the efficacy of RXR agonists in the prevention of diabetes was tested in young db/db mice. […] Serum samples were analyzed by using commercially available kits from Boehring Manheim for their thyroxine (T4) levels in a Boehringer Manheim Hatachi Clinical Chemistry Analyzer as described in the reference manual of Boehringer Mannheim Corporation, 9115 Hague Road, Indianapolis, Ind., USA, expressly incorporated herein.

In data set [2] the test system is diabetic db/db mice. The experiment in a line: serum glucose in diabetic db/db mice, 7 days oral dosing. It counts as in vivo. The note with it: for Glucose: 10 mg/kg once daily oral gavage, mean +/- SD. The protocol: as §1, §2, §3
Another data set has as its target T2, RXRβ (UniProt P28704).
T2 sequence (P28704 1-520): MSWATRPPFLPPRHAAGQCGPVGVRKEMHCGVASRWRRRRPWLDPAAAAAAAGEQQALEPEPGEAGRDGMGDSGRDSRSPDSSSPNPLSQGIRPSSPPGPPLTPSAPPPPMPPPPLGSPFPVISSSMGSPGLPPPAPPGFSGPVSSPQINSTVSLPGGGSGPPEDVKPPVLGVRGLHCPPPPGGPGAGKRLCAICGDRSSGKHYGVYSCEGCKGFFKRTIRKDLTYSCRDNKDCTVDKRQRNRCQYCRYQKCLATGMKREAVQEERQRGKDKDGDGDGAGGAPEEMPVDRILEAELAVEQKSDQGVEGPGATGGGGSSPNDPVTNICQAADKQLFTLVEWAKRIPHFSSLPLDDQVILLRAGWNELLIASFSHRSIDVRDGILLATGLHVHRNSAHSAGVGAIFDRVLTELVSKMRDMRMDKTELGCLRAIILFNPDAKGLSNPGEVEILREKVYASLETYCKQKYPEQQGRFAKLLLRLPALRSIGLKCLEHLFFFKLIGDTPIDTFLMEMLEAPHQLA
The experiment in a line: holoreceptor transactivation assay, RXRβ. It counts as cell-based.
Excerpt: The results obtained in this assay are expressed in EC50 numbers, as they are also in the chimeric receptor transactivation assay. The results of the ligand binding assay are expressed in Ki numbers.
as §4, §5

[3] abbreviates: Day 1, 0 hr (immediately prior to dosing).

Structures are written as SMILES.

In the case of `CC(/C=C/[C@@H]1C[C@]1(C)c1ccc2c(c1)C(C)(C)CCC2(C)C)=C\C(=O)O` [Standard compound, (2E,4E,1′S,2′S)-3-methyl-5-[2′-methyl-2′-(5,5,8,8-tetramethyl-5,6,7,8-tetrahydro-naphthalen-2-yl)-cyclopropyl]-penta-2,4-dienoic acid, reference compound], the Triglycerides with diabetic db/db mice [1] (setting [3]) is 183 ± 50 mg/dL; in the data set on diabetic db/db mice [1] (Day 1, 3 hr), 220 ± 87 mg/dL; in the data set on diabetic db/db mice [1] (Day 7, 0 hr), 137 ± 32 mg/dL. For the same compound, the “effect on serum triglyceride (in words)” value in the data set on diabetic db/db mice [1] (mouse, in vivo) was “induces hypertriglyceridemia”. Further, the “RXR α efficacy in percentage as compared to the standard compound” value at RXRα is reported as 100%. Also, in the data set with young db/db mice (5 mg/kg orally for 14 days, mean +/- SD (n = 7)), the Serum thyroxine turned out to be 0.83 ± 0.29 µg/dL. Moreover, the “effect on serum T4 (in words)” value with young db/db mice (mouse, in vivo) is listed as “lowering serum T4”. The Glucose in the data set with diabetic db/db mice [2] (setting [3]) turned out to be 501 ± 87 mg/dL; in the data set with diabetic db/db mice [2] (Day 1, 3 hr), 403 ± 86 mg/dL; in the data set with diabetic db/db mice [2] (Day 7, 0 hr), 367 ± 101 mg/dL; with diabetic db/db mice [2] (Day 7, 3 hr) it was 301 ± 40 mg/dL. In addition, the “effect on serum glucose in diabetic mouse (in words)” value in the data set with diabetic db/db mice [2] (mouse, in vivo) was “capable of lowering serum glucose”. The “RXR β efficacy in percentage as compared to the standard compound” value on RXRβ is recorded as 0.4(100)1%. On RXRβ, the “efficacy in activating RXRβ compared with RXRα and RXRγ subtypes (in words)” value is “approximately equally efficacious in activating the RXRα, RXRβ and RXRγ subtypes”.
